Assay results: patent publication US20250171432A1, “COMPOUNDS AND METHODS OF USE” (Tango Therapeutics, Inc., priority 2022, published 2025)
pIC50: −log10 of the molar value. Read-outs that look alike come from different tables or passages of the source.

Key:
Format in all cases: cell-based
[1] = tested on: HAP1 MTAP-deleted cell line; experiment: Viability assay (CellTiter-Glo), HAP1 MTAP-deleted; details: Homo sapiens, 168 h, HAP1 MTAP-deleted cells, 7 days
Experimental: All test compounds are maintained as 10 mM DMSO stocks.
On Day 0, MTAP-intact and MTAP-deleted cells are seeded in a 96-well plate, and incubated in a humidified, 5 or 10% CO2 tissue culture incubator for 16-24 hours. On Day 1, the test compounds are dispensed to wells at defined concentrations using a Tecan D300e digital dispenser (n=3), and the volume of DMSO is normalized to highest class volume (0.2%). The compound-treated plates are incubated for 7 days in a humidified, 5 or 10% CO2 tissue culture incubator.
On Day 7, the plates are removed from the tissue culture incubator and allowed to equilibrate to room temperature. Then either a ½% volume CellTiter-Glo Luminescent Cell Viability Assay reagent (Promega G7572) is added to each well, or the media is removed from every well and a 1:3 dilution of CellTiter-Glo 2.0 Cell Viability Assay reagent (Promega G9241) in 1×PBS is added. Ten minutes after addition, the luminescent signal is detected by an Envision plate reader. The data are plotted as % of the DMSO control wells for the MTAP-intact and the MTAP-deleted cell lines independently, and fitted to the 4-parameter logistic (4-PL) Hill equation with maximal effect constrained to 0. The fit was performed using GraphPad Prism or the default IC50 fitting procedure in Dotmatics Studies 5.4 as part of a customized data analysis protocol.

[2] = tested on: SDMA (PRMT5 activity) in HAP1 MTAP-deleted cell line; experiment: SDMA in-cell western assay, HAP1 MTAP-deleted
Experimental: (§1) The SAM-cooperative PRMT5 inhibitor, GSK3326595, was sourced from SelleckChem and maintained as a 10 mM DMSO stock. All test compounds are maintained as 10 mM DMSO stocks
(§2) On Day 0, MTAP-intact or MTAP-deleted cells are seeded in a 384-well plate, and incubated in a humidified, 5% CO2 tissue culture incubator for 16-24 hours. On Day 1, the test compounds are dispensed to wells at defined concentrations using a Tecan D300e digital dispenser (n=4), and the volume of DMSO is normalized to highest class volume. Each plate includes wells dosed with defined concentrations of GSK33226595 as a plate control. The compounds are incubated with cells for 24 hours in a humidified, 5% CO2 tissue culture incubator.
(§3) On Day 2, the compound-treated cells are fixed with a final concentration of 4% formaldehyde. The cells are then washed/permeabilized with 1×PBS+0.1% Triton X-100, and then blocked with 5% goat serum/1×TBS.
(§4) The cells are washed with 1×PBS+0.1% Triton X-100, and then washed again with ddH20. The plates are then imaged using a NIR fluorescent imager (LiCor Odyssey).
(§5) For data analysis, the SDMA signal is normalized to the DRAQ5 signal. Assay background is determined by the signal from wells treated with 1 μM GSK3326595, and subtracted from every well. The data are plotted as % of the DMSO control wells for the MTAP-intact and the MTAP-deleted cell lines independently, and fitted to the 4-parameter logistic (4-PL) Hill equation with maximal effect constrained to 0. The fit was performed using GraphPad Prism or the default IC50 fitting procedure in Dotmatics Studies 5.4 as part of a customized data analysis protocol.

[3] = tested on: SDMA (PRMT5 activity) in HAP1 MTAP-intact cell line; experiment: SDMA in-cell western assay, HAP1 MTAP-intact
Experimental: as §1, §2, §3, §4, §5

[4] = Homo sapiens, SDMA in-cell western, HAP1 MTAP-deleted cells, 24 hours compound incubation
[5] = ratio of SDMA IC50 in HAP1 MTAP-intact to HAP1 MTAP-deleted cell line
[6] = Homo sapiens, HAP1, 24 h, SDMA in-cell western, HAP1 MTAP-intact cells, 24 hours compound incubation

Structure (SMILES)	pIC50 [1]	pIC50 [2, 4]	IC90 [2, 4] [µM]	Hap1 MTAP intact/deleted ratio [2, 5]	pIC50 [3, 6]	Hap1 MTAP intact/deleted ratio [2]	pIC50 [2]	IC90 [2] [µM]	pIC50 [3]
CCc1cc(NC(=O)C(=O)N2C[C@@H](C)CC[C@@H]2c2ccc3cn([C@H]4CCCN(C)C4)nc3c2)cnc1N [Compound 104]	> 7.00	> 8.30	< 0.075	B (“B” indicates an IC50 ratio greater than or equal to 15 fold but lower than 30 fold)	< 7.30	–	–	–	–
CCc1cc(NC(=O)C(=O)N2C[C@@H](C)CC[C@@H]2c2cccc(N3CCC(N(C)C)CC3)c2)cnc1N [Compound 9, N-(6-amino-5-ethylpyridin-3-yl)-2-((2R,5S)-2-(3-(4-(dimethylamino)piperidin-1-yl)phenyl)-5-methylpiperidin-1-yl)-2-oxoacetamide]	> 7.00	> 8.30	< 0.075	A (“A” indicates an IC50 ratio greater than or equal to 30 fold)	< 7.30	–	–	–	–
COc1ncc(NC(=O)C(=O)N2C[C@@H](C)CC[C@@H]2c2ccc3sc([C@H](C)CN4CCCC4)nc3c2)cc1C(N)=O [Compound 15, 2-methoxy-5-[[2-oxo-2-[(2R,5S)-5-methyl-2-[2-[(1R)-1-methyl-2-pyrrolidin-1-yl-ethyl]-1,3-benzothiazol-5-yl]-1-piperidyl]acetyl]amino]pyridine-3-carboxamide]	> 7.00	> 8.30	< 0.075	B (“B” indicates an IC50 ratio greater than or equal to 15 fold but lower than 30 fold)	< 7.30	–	–	–	–
CCc1cc(NC(=O)C(=O)N2C[C@@H](C)CC[C@@H]2c2ccc3sc(C4CN(C)CCN4C)nc3c2)cnc1N (mixture of isomers) [Compound 70, N-(6-amino-5-ethylpyridin-3-yl)-2-((2R,5S)-2-(2-(1,4-dimethylpiperazin-2-yl)benzo[d]thiazol-5-yl)-5-methylpiperidin-1-yl)-2-oxoacetamide]	> 7.00	7.30 to 8.30	< 0.075	B (“B” indicates an IC50 ratio greater than or equal to 15 fold but lower than 30 fold)	< 7.30	–	–	–	–
CCc1cc(NC(=O)C(=O)N2C[C@@H](C)CC[C@@H]2c2ccc3sc([C@@H]4CCN(C)C[C@H]4OC)nc3c2)cnc1N (single isomer, unassigned) [Compound 101]	> 7.00	> 8.30	< 0.075	B (“B” indicates an IC50 ratio greater than or equal to 15 fold but lower than 30 fold)	7.30 to 8.30	–	–	–	–
CCc1cc(NC(=O)C(=O)N2C[C@@H](C)CC[C@@H]2c2ccc3cc(C4CCN(C)CC4)cnc3c2)cnc1N [Compound 95, N-(6-amino-5-ethylpyridin-3-yl)-2-((2R,5S)-5-methyl-2-(3-(1-methylpiperidin-4-yl)quinolin-7-yl)piperidin-1-yl)-2-oxoacetamide]	> 7.00	> 8.30	< 0.075	B (“B” indicates an IC50 ratio greater than or equal to 15 fold but lower than 30 fold)	7.30 to 8.30	–	–	–	–
Cc1cc2cc(C(=O)N3C[C@@H](C)CC[C@@H]3c3ccc4sc(C5CCN(C)CC5)nc4c3)ccc2nc1N [Compound 59, (2-amino-3-methylquinolin-6-yl)((2R,5S)-5-methyl-2-(2-(1-methylpiperidin-4-yl)benzo[d]thiazol-5-yl)piperidin-1-yl)methanone]	> 7.00	–	–	–	–	A (key: “A” indicates an IC50 ratio greater than or equal to 30 fold; “B” indicates an IC50 ratio greater than or equal to 15 fold but lower than 30 fold; “C” indicates an IC50 ratio of less than 15 fold)	> 8.30	< 0.075	< 7.30
CCc1cc(NC(=O)C(=O)N2C[C@@H](C)CC[C@@H]2c2ccc3cc(C#N)cnc3c2)cnc1N [Compound 54]	6.00 to 7.00	7.30 to 8.30	> 0.125	A (“A” indicates an IC50 ratio greater than or equal to 30 fold)	< 7.30	–	–	–	–
COc1ncc(NC(=O)C(=O)N2C[C@@H](C)CC[C@@H]2c2ccc3cn(C4CCOCC4)nc3c2)cc1C(N)=O [Compound 107, 2-methoxy-5-[[2-oxo-2-[(2R,5S)-5-methyl-2-(2-tetrahydropyran-4-ylindazol-6-yl)-1-piperidyl]acetyl]amino]pyridine-3-carboxamide]	6.00 to 7.00	7.30 to 8.30	0.075 to 0.125	A (“A” indicates an IC50 ratio greater than or equal to 30 fold)	< 7.30	–	–	–	–
CCc1cc(NC(=O)C(=O)N2C[C@@H](C)CC[C@@H]2c2ccc3nn(CCN(C)C)cc3c2)cnc1N [Compound 72]	> 7.00	7.30 to 8.30	> 0.125	A (“A” indicates an IC50 ratio greater than or equal to 30 fold)	< 7.30	–	–	–	–
COc1ncc(NC(=O)C(=O)N2C[C@@H](C)CC[C@@H]2c2ccc3ccc(N4CCN(C)CC4)nc3c2)cc1C(N)=O [Compound 126, 2-methoxy-5-(2-((2R,5S)-5-methyl-2-(2-(4-methylpiperazin-1-yl)quinolin-7-yl)piperidin-1-yl)-2-oxoacetamido)nicotinamide]	> 7.00	> 8.30	< 0.075	A (“A” indicates an IC50 ratio greater than or equal to 30 fold)	< 7.30	–	–	–	–
CCc1cc(NC(=O)C(=O)N2C[C@@H](C)CC[C@@H]2c2ccc3sc(CC4CCN(C)CC4)nc3c2)cnc1N [Compound 41, N-(6-amino-5-ethylpyridin-3-yl)-2-((2R,5S)-5-methyl-2-(2-((1-methylpiperidin-4-yl)methyl)benzo[d]thiazol-5-yl)piperidin-1-yl)-2-oxoacetamide]	> 7.00	> 8.30	< 0.075	B (“B” indicates an IC50 ratio greater than or equal to 15 fold but lower than 30 fold)	7.30 to 8.30	–	–	–	–
CCc1cc(NC(=O)C(=O)N2C[C@@H](C)CC[C@@H]2c2ccc3sc([C@H]4C[C@H](C)CN(C)C4)nc3c2)cnc1N (single isomer, unassigned) [Compound 75]	> 7.00	7.30 to 8.30	< 0.075	B (“B” indicates an IC50 ratio greater than or equal to 15 fold but lower than 30 fold)	< 7.30	–	–	–	–
COc1ncc(NC(=O)C(=O)N2C[C@@H](C)CC[C@@H]2c2cccc(OC[C@@H](C)N(C)C)c2)cc1C(N)=O [Compound 49, 5-(2-((2R,5S)-2-(3-((R)-2-(dimethylamino)propoxy)phenyl)-5-methylpiperidin-1-yl)-2-oxoacetamido)-2-methoxynicotinamide]	6.00 to 7.00	> 8.30	< 0.075	A (“A” indicates an IC50 ratio greater than or equal to 30 fold)	< 7.30	–	–	–	–
CCc1cc(NC(=O)C(=O)N2C[C@@H](C)CC[C@@H]2c2ccc3sc(CC(C)(C)N(C)C)nc3c2)cnc1N [Compound 89, N-(6-amino-5-ethylpyridin-3-yl)-2-((2R,5S)-2-(2-(2-(dimethylamino)-2-methylpropyl)benzo[d]thiazol-5-yl)-5-methylpiperidin-1-yl)-2-oxoacetamide]	> 7.00	> 8.30	< 0.075	A (“A” indicates an IC50 ratio greater than or equal to 30 fold)	< 7.30	–	–	–	–
CCc1cc(NC(=O)C(=O)N2C[C@@H](C)CC[C@@H]2c2ccc3sc([C@@H]4C[C@H](C)N(C)C4)nc3c2)cnc1N (racemic) [Compound 16, N-(6-amino-5-ethyl-3-pyridyl)-2-oxo-2-[(2R,5S)-5-methyl-2-[2-[rac-(3S,5R)-1,5-dimethylpyrrolidin-3-yl]-1,3-benzothiazol-5-yl]-1-piperidyl]acetamide]	> 7.00	> 8.30	< 0.075	A (“A” indicates an IC50 ratio greater than or equal to 30 fold)	< 7.30	–	–	–	–
